{"source": "paper PMC5847048", "about": "(Psychopharmacology, 2017)", "key": {"[1]": {"system": "aged mice (22–24 months old)", "experiment": "Radial maze working memory task", "assay_type": "in vivo, mouse", "conditions": "donepezil 0.3 mg/kg s.c.; aged mice", "protocol": "In the radial arm maze task, treatments were administered subcutaneously (s.c.) once a day 60 min prior to testing from the 2 days of habituation to the 12 days of memory testing.\nThe radial maze (Imetronic system, Pessac, France) was fully automated and enabled by video-tracking automatic testing and recording. Briefly, each mouse was separately assigned to six adjacent arms which were grouped into three pairs (A, B, C). These three pairs were presented repeatedly among the successive trials of each testing session. The location of the food reward varied in each pair according to an alternation rule among successive trials. Namely, among the two arms opened in a specific trial, the food was inserted in the arm which was not visited in the previous trial within the same pair. The mouse must therefore remember which of the two arms was visited in a specific trial until next presentation of the same pair, and so on in order to alternate its choice among successive presentations of any pair. At the beginning of each daily session, the mouse was placed in the central platform of the radial maze with all arms closed. One pair of arms only was opened at the beginning of each trial, and the mouse was required to visit one arm. The door of the non-chosen arm was closed as soon as the mouse reached the end of the chosen arm. The mouse was allowed to run back to the central platform of his own accord, and then, the door of the chosen arm was closed. The mouse remained in the central platform until the following trial (intertrial interval 10 s). Since three pairs were concurrently used, three specific arm visits must be kept in memory by the mouse until their utilization by using short-term working memory. After 2 days of free exploration in the maze (habituation), mice were submitted to 12 consecutive testing sessions: one session of 23 trials (3 “acquisition-only trials,” one by pair, and 20 “acquisition and test trials”) per day, i.e., a total of 276 trials (240 test trials).\nEach session consisted of alternate presentations of pairs A, B, and C. The first three trials with each pair were acquisition trials (both arms rewarded). Each of the following trials was at the same time an acquisition trial (for the following trial with the same pair) and a test trial (for the arm visit made during the preceding trial with the same pair); the rewarded arm was the one that has not been visited on the preceding trial with the same pair. Memory demand varied across successive trials according to the retention interval RI (i.e., the number of intervening trials with other pairs between two successive presentations of the same pair). The retention interval for one specific arm visit (e.g., within pair A) depends on the number of concurring trials (i.e., with pairs B and C) occurring till next trial with the same pair (A). Indeed, such a variable amount of interposed trials proportionally increases the delay between acquisition and test and may also generate retroactive interference. There are five levels of retention interval: from 0, corresponding to “no interposed pair,” to 4, corresponding to a sequence of four interposed trials between n-1 and n trials.\nDuring habituation, the time needed for visiting all six arms per session day was measured. During memory testing, memory performance was evaluated according to the percentage of correct alternation responses between successive trials with the same pair in three different manners."}, "[2]": {"system": "middle-aged mice (14–15 months old)", "experiment": "Contextual serial discrimination (CSD) task", "assay_type": "in vivo, mouse", "conditions": "for Post hoc analysis of donepezil effect on SCM score for all S 47445 levels (Dunnett, versus vehicle group): all levels of S 47445 pooled", "description": "(§1) Treatments were administered per os daily for nine consecutive days for studies involving the CSD and SA tasks. The 8th and the 9th oral administrations were given 60 min before acquisition and test phases in the CSD task, or before the training and the test sessions in the SA task.\nThe studies were carried out on mice according to the procedure described in full by Celerier et al. ([2004]) and Tronche et al. ([2010]) (Fig.1). Briefly, the mouse learns two consecutive spatial discriminations (D1 and D2) in a four hole-board apparatus (45 × 45 × 30 cm) enclosed with gray Plexiglas walls. The floor of the hole-board was interchangeable (white and rough versus black and smooth). On the floor, four holes opening on a food cup (3-cm diameter × 2.5-cm depth) were located 6 cm away from the sidewalls. Photocells located into the holes allowed an automatic recording of the number of head-dips in each hole.\nFig. 1 a Contextual serial discrimination: at the acquisition phase, mice performed two consecutive spatial discrimination sessions varying by the color and texture of the floor, i.e., D1, discrimination 1, and D2, discrimination 2. For each discrimination session, only one out of the four holes of the apparatus was baited (hashed circles). […] One hour prior to acquisition and test phases, mice received a per os administration of the compounds or vehicle solution in a chamber placed in a room (room C) different from the one in which the behavioral experiments were conducted (room A). Subsequently, mice were submitted to the test phase in which they were repositioned on the floor of the first discrimination without any food pellet in the apparatus. b Two types of responses were calculated: (i) correct responses corresponding to head-dips into the hole baited at the acquisition of the first discrimination (D1), on the same floor context; (ii) interference responses corresponding to head-dips into the hole baited at the other (second) discrimination (D2). Both parameters allow calculation of the SCM score\nMice were partially food-deprived for 1 week prior to experimentation and were maintained on a 12 ± 2% loss of their body weight throughout behavioral testing to increase motivation for food reward. During the food deprivation phase, mice were handled daily to familiarize them with the experimenter.\nDuring the acquisition session, mice were first placed at the center of the board in a plastic tube for 15 s and then learned two successive spatial discriminations (D1 and D2) for 6 min each and were each separated by a 2-min interval. Between two sessions, each mouse was placed in its home cage in an animal housing room. For D1, ten 20-mg pellets were available only in one of the four holes in the board. For D2, ten 20-mg pellets were located in the opposite symmetrical hole. The environmental spatial cues remained at the same place for D1 and D2. Within each group, the floors used for the first and second discrimination (D1 and D2) were counterbalanced at the acquisition phase from one mouse to the other. A minimal amount of eight pellets should be eaten per mouse at either D1 or D2 during the acquisition phase.\nDuring memory testing, D1 and D2 discriminations were performed in independent groups of mice, being replaced either on the floor of D1 or of D2. The food-deprived mice were replaced either on the floor of D1 or on the floor of D2. In each case, mice were allowed to explore the apparatus freely and performance was assessed by measuring the exploration for each hole for 6 min without any pellets in the apparatus. During the procedure, photocells allowed measurement of the number of head dips in each hole. Different parameters were further calculated: % of correct responses (head-dips into the hole previously baited on the same floor context), % of interfering responses (head-dips into the hole previously baited on the other floor context), and % of errors (head-dips into the two holes never previously baited)."}, "[3]": {"system": "mice", "experiment": "Primary observation (Irwin) test", "conditions": "donepezil alone", "quoted_text": "Male Rj: C57BL/6J mice (Elevage Janvier, 53940 Le Genest-Saint-Isle, France), 23–27 g body weight range, were stabilized for at least 5 days after delivery in macrolon cages in groups of 10 (housing period) (25 × 19 × 13 cm) and then of 4 (starting the day before the test and during the test) in macrolon cages (25 × 19 × 13 or 32 × 13 × 14 cm) on wood litter with free access to food and water.\nBetween one and three treated groups were compared with the same control at any one time. […] In order to keep the same conditions, all the mice receiving a single treatment also received another administration with vehicle.\nBehavioral modifications, physiological and neurotoxicity symptoms, and rectal temperature were recorded according to a standardized observation grid derived from that of Irwin. The grid contains the following items: death*, convulsions*, tremor*, Straub tail*, altered activity, excitation, jumping*, abnormal gait* (rolling, tip-toe), motor incoordination*, altered muscle tone, loss of grasping, akinesia, catalepsy, loss of traction, writhing*, piloerection*, stereotypies* (sniffing, chewing, head movements), head-twitches*, scratching*, altered respiration*, aggression*, altered fear, altered reactivity to touch, ptosis, exophthalmia, loss of righting reflex, loss of corneal reflex, analgesia, defecation/diarrhea, salivation, lacrimation, and rectal temperature (hypothermia/hyperthermia)."}, "[4]": {"system": "aged mice (18–19 months old)", "experiment": "Sequential/spontaneous alternation (SA) working memory task in T-maze", "assay_type": "in vivo, mouse", "conditions": "donepezil 0.1 mg/kg p.o. alone, ITI 90 s, n = 12", "description": "as §1\nThe spontaneous alternation (SA) task was performed in independent groups of mice as regards to the CSD and radial maze tasks. The SA task allows investigation of aged-induced working memory impairments (Vandesquille et al. [2011]). In this task, mice are submitted to a series of successive choices in a T-maze. To alternate from trial to trial, animals have to remember at each choice (except the first one) only the previous trial and to reset the interfering information from trial to trial over a series. This resetting mechanism is a main aspect of working memory (Aggleton et al. [1986]; Béracochéa and Jaffard, [1987]; Kesner [2005]).\nBehavioral tests were conducted in a gray Plexiglas T-maze. Stem and arms are 35 cm long, 15 cm wide, and 10 cm high. The starting box (10 cm × 12 cm) and each goal arm are separated from the central alley by a vertical sliding door, with opening and closing monitored by a computer. Photoelectric cells allow recording of both the choice of the goal arm (left or right) and the latency (in seconds) that elapsed between the opening of the starting box and the closing of the goal box. The T-maze is located at the center of a room with various allocentric cues (white or black or striped card boards) located on the wall 1 m above the apparatus.\nAnimals were not food deprived, and no food reinforcement was used. Animals were first submitted to a habituation phase consisting of two free exploration sessions of 10 min each, over two consecutive days (one session per day) in the apparatus with all doors opened. At the end of the habituation phase, all animals were submitted to a training phase, involving a series of seven successive trials separated by a 30-s intertrial interval (ITI). The training phase was aimed at familiarizing the animals with the opening and closing of the doors.\nFor the training session, animals were submitted to a sequence of seven successive identical trials. At the beginning of a trial, mice were placed in the starting box and after a confinement period (30 s, predefined ITI), the door to the stem was opened. When the mouse entered one of the goal arms, the door was closed and the chosen arm was recorded. After a 30-s confinement period in the chosen arm, the mouse was gently returned to the starting box for a second trial, identical to the first one. To avoid olfactory cues in the apparatus, visible traces of urine were removed and the general procedure was implemented as in the training phase, except that the ITI was extended to 90 s and animals were submitted to a series of […] successive trials. […] Moreover, an 8th trial was added to the series which was separated from the 7th one by a 5-s ITI. […] The alternation score (in percentage) was used as an index of memory performance. An alternation is defined as a visit in a given arm followed by a visit into the other arm. The successive sequence of visits for the seven first trials determines the level of alternation. A percentage of alternation was calculated: number of alternations performed/number maximal of alternation. This percentage is calculated for each mouse.\nFor the sequential alternation task, mean and standard errors of the mean (SEM) were calculated for each group of treatment. In addition to % alternation drawn over the seven trials of the series, behavioral performances were also expressed in percentage of alternation drawn from blocks of two consecutive trials (block 1: trials 2 + 3; block 2: trials 4 + 5; block 3: trials 6 + 7). The analyses per trial blocks allowed evaluation of proactive interference over the series (Vandesquille et al. [2011], [2013]). Statistical analyses were performed using the Statview 5.0 software. […]"}, "[5]": {"system": "aged mice (22–24 months old)", "set-up": "method as in Marighetto et al., [2008b]", "conditions": "ref Marighetto et al., [2008b], cited from earlier work"}}}
{"smiles": "COc1cc2c(cc1OC)C(=O)C(CC1CCN(Cc3ccccc3)CC1)C2", "note": "(centres unmarked) [Donepezil, reference compound]", "values": [{"measurement": "Performance as a function of retention interval (RI 0–4) versus chance level", "setting": "[1]", "result": "remained significantly above chance up to RI = 3"}, {"measurement": "Total number of explorations and % exploration of the baited hole, acquisition phase", "setting": "[2]; Experiment 1 (study A and B), compounds alone, p> 0.10 in all analyses", "result": "No significant between-groups difference"}, {"measurement": "Memory performance in the second discrimination (D2)", "setting": "[2]; Experiment 1, S 47445 at all doses, donepezil at the active doses, versus middle-aged vehicle, data not shown", "result": "did not alter memory performance"}, {"measurement": "Total number of head-dips, test phase", "setting": "[2]; Experiment 1, versus vehicles (p > 0.10 in all comparisons), data not shown", "result": "no significant effect"}, {"measurement": "SCM score of the second discrimination (D2), dose effect at pooled levels of the other drug", "setting": "[2]; Supplemental data 2, S 47445 0.03–0.3 mg/kg p.o. (p=0.951), Donepezil 0.03 and 0.1 mg/kg (p=0.074)", "result": "no significant effect"}, {"measurement": "Post hoc analysis of donepezil effect on SCM score for all S 47445 levels (Dunnett, versus vehicle group)", "setting": "[2]; donepezil 0.03 mg/kg", "result": "NS (p = 0.079) (NS p > 0.050)"}, {"measurement": "Post hoc analysis of donepezil effect on SCM score for all S 47445 levels (Dunnett, versus vehicle group)", "setting": "[2]; donepezil 0.1 mg/kg", "result": "*** (***p ≤ 0.001)"}, {"measurement": "Symptoms observed in the Irwin test", "setting": "[3]; 3 mg/kg p.o.", "result": "Tremor, hypothermia, and decreases in activity, abdominal muscle tone, and reactivity to touch"}, {"measurement": "Additional symptoms observed in the Irwin test", "setting": "[3]; 10 mg/kg p.o.", "result": "Straub tail and abnormal gait (rolling)"}, {"measurement": "Observable effects in the Irwin test", "setting": "[3]; dose range 3–10 mg/kg p.o., mice", "result": "clear and dose-dependent sedative/myorelaxant effects"}, {"measurement": "Alternation score, 3rd block of trials (trials 6 + 7)", "setting": "[4]", "result": "45.833 ± 4.167", "unit": "n = 12%"}, {"measurement": "Alternation score, seven first trials of the series", "setting": "[4]", "result": "alternated significantly above vehicles"}, {"measurement": "Activity in radial maze working memory task", "setting": "[5]; donepezil 0.3 mg/kg i.p.", "result": "limited to the organizational component of the task"}, {"measurement": "Active dose in the same working memory task", "setting": "[5]; donepezil", "result": "0.3 mg/kg but not of 1 mg/kg was found to be active"}]}
